This note sets out measurements from US20250213555A1, “SUBSTITUTED TETRAHYDROFURAN ANALOGS AS MODULATORS OF SODIUM CHANNELS” (VERTEX PHARMACEUTICALS INCORPORATED, priority 2021, published 2025).

What is called IC50 is the midpoint of a concentration-inhibition curve.

Chain of human Nav 1.8 (Q9Y5Y9 126-399 limits assumed): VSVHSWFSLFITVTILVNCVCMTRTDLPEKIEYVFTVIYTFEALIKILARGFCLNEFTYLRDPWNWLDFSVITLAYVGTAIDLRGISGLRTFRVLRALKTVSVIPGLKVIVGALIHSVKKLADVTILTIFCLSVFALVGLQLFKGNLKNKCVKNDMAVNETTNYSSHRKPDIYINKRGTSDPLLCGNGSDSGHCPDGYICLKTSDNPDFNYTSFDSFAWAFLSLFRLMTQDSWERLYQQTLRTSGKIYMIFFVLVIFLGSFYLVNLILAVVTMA
Chain of human Nav 1.8 (Q9Y5Y9 660-890 limits assumed): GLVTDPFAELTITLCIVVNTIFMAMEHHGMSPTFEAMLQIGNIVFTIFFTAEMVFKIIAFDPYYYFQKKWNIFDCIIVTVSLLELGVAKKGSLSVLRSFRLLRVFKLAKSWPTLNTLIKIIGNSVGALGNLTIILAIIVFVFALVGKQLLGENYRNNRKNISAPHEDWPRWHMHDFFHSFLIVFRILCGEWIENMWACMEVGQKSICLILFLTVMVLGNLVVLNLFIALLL
Chain of human Nav 1.8 (Q9Y5Y9 1148-1722 limits assumed): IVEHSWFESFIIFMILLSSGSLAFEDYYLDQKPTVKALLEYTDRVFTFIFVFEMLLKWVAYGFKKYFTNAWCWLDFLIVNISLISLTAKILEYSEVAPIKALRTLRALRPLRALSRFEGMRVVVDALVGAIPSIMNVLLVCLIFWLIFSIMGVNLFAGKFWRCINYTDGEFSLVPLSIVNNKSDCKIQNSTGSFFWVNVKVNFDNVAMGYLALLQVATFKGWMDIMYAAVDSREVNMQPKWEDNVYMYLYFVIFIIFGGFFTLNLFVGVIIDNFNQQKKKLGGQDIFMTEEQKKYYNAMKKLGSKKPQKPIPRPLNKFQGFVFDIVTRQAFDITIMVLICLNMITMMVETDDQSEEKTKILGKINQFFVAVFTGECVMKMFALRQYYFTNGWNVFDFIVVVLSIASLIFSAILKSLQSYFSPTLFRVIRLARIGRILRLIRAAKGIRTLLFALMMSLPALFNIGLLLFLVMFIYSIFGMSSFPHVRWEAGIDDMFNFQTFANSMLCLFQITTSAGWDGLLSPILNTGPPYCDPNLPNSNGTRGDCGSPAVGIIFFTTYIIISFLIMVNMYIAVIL

This test concerns the target human Nav 1.8 (Homo sapiens, UniProt Q9Y5Y9). Kind of test: E-VIPR assay detecting and measuring Nav inhibition properties. In kind it is cell-based. To be noted: HEK cells expressing a truncated form of human Nav 1.8; compound numbers without "*" (not marked as run in the presence of human serum); read-out: measured IC50 value in the E-VIPR Assay. In outline:
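Nav inhibition was read by E-VIPR: cells were electrically stimulated while coumarin/oxonol FRET emissions were recorded. Cells were HEK expressing a truncated human Nav 1.8 and co-transduced with KIR2.1, and were assayed in 25% final human serum.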
As for `C[C@H]1[C@@H](c2ccc(F)c(F)c2OCC2CN(C)C2)[C@H](C(=O)Nc2ccnc(C(N)=O)c2)O[C@@]1(C)C(F)(F)F` [Compound 104, 4-((2R,3S,4S,5R)-3-(3,4-difluoro-2-((1-methylazetidin-3-yl)methoxy)phenyl)-4,5-dimethyl-5-(trifluoromethyl)tetrahydrofuran-2-carboxamido)picolinamide], the IC50 was 10 to 100 nM. For `C[C@H]1[C@@H](c2ccc(F)c(F)c2OCC2(F)CN(C)C2)[C@H](C(=O)Nc2ccnc(C(N)=O)c2)O[C@@]1(C)C(F)(F)F` [Compound 105, 4-((2R,3S,4S,5R)-3-(3,4-difluoro-2-((3-fluoro-1-methylazetidin-3-yl)methoxy)phenyl)-4,5-dimethyl-5-(trifluoromethyl)tetrahydrofuran-2-carboxamido)picolinamide], the IC50 lay in the range of 10 to 100 nM. With `C[C@H]1[C@@H](c2ccc(F)c(F)c2OCC2(F)CNC2)[C@H](C(=O)Nc2ccnc(C(N)=O)c2)O[C@@]1(C)C(F)(F)F` [Compound 106, 4-((2R,3S,4S,5R)-3-(3,4-difluoro-2-((3-fluoroazetidin-3-yl)methoxy)phenyl)-4,5-dimethyl-5-(trifluoromethyl)tetrahydrofuran-2-carboxamido)picolinamide], the IC50 was 100 to 1000 nM. As for `C[C@H]1[C@@H](c2ccc(F)c(F)c2OCCN2CCCOCC2)[C@H](C(=O)Nc2ccnc(C(N)=O)c2)O[C@@]1(C)C(F)(F)F` [Compound 108, 4-((2R,3S,4S,5R)-3-(2-(2-(1,4-oxazepan-4-yl)ethoxy)-3,4-difluorophenyl)-4,5-dimethyl-5-(trifluoromethyl)tetrahydrofuran-2-carboxamido)picolinamide], the IC50 lay within 10 to 100 nM. Turning to `C[C@@H]1CN(CCOc2c([C@H]3[C@H](C(=O)Nc4ccnc(C(N)=O)c4)O[C@@](C)(C(F)(F)F)[C@H]3C)ccc(F)c2F)CCO1` [Compound 109, 4-((2R,3S,4S,5R)-3-(3,4-difluoro-2-(2-((R)-2-methylmorpholino)ethoxy)phenyl)-4,5-dimethyl-5-(trifluoromethyl)tetrahydrofuran-2-carboxamido)picolinamide], the IC50 was less than 10 nM. On to `C[C@H]1[C@@H](c2ccc(F)c(F)c2OCCN2CC3CC(C2)O3)[C@H](C(=O)Nc2ccnc(C(N)=O)c2)O[C@@]1(C)C(F)(F)F` [Compound 110, 4-((2R,3S,4S,5R)-3-(2-(2-(6-oxa-3-azabicyclo[3.1.1]heptan-3-yl)ethoxy)-3,4-difluorophenyl)-4,5-dimethyl-5-(trifluoromethyl)tetrahydrofuran-2-carboxamido)picolinamide], for which the IC50 is less than 10 nM.

`C[C@H]1CN(CCOc2c([C@H]3[C@H](C(=O)Nc4ccnc(C(N)=O)c4)O[C@@](C)(C(F)(F)F)[C@H]3C)ccc(F)c2F)CCO1` [Compound 111, 4-((2R,3S,4S,5R)-3-(3,4-difluoro-2-(2-((S)-2-methylmorpholino)ethoxy)phenyl)-4,5-dimethyl-5-(trifluoromethyl)tetrahydrofuran-2-carboxamido)picolinamide]: the IC50 is less than 10 nM.

In the case of `C[C@H]1[C@@H](c2ccc(F)c(F)c2OCCNCC(F)F)[C@H](C(=O)Nc2ccnc(C(N)=O)c2)O[C@@]1(C)C(F)(F)F` [Compound 112, 4-((2R,3S,4S,5R)-3-(2-(2-((2,2-difluoroethyl)amino)ethoxy)-3,4-difluorophenyl)-4,5-dimethyl-5-(trifluoromethyl)tetrahydrofuran-2-carboxamido)picolinamide], the IC50 is less than 10 nM. In the case of `C[C@H]1[C@@H](c2ccc(F)c(F)c2OCCN2C3CCC2COC3)[C@H](C(=O)Nc2ccnc(C(N)=O)c2)O[C@@]1(C)C(F)(F)F` [Compound 113, 4-((2R,3S,4S,5R)-3-(2-(2-(3-oxa-8-azabicyclo[3.2.1]octan-8-yl)ethoxy)-3,4-difluorophenyl)-4,5-dimethyl-5-(trifluoromethyl)tetrahydrofuran-2-carboxamido)picolinamide], the IC50 fell in the range of 10 to 100 nM. Then `CNCCOc1c([C@H]2[C@H](C(=O)Nc3ccnc(C(N)=O)c3)O[C@@](C)(C(F)(F)F)[C@H]2C)ccc(F)c1F` [Compound 114, 4-((2R,3S,4S,5R)-3-(3,4-difluoro-2-(2-(methylamino)ethoxy)phenyl)-4,5-dimethyl-5-(trifluoromethyl)tetrahydrofuran-2-carboxamido)picolinamide], with 10 to 100 nM; and `CC(C)NCCOc1c([C@H]2[C@H](C(=O)Nc3ccnc(C(N)=O)c3)O[C@@](C)(C(F)(F)F)[C@H]2C)ccc(F)c1F` [Compound 115, 4-((2R,3S,4S,5R)-3-(3,4-difluoro-2-(2-(isopropylamino)ethoxy)phenyl)-4,5-dimethyl-5-(trifluoromethyl)tetrahydrofuran-2-carboxamido)picolinamide], with 100 to 1000 nM. As for `C[C@H]1[C@@H](c2ccc(F)c(F)c2OCCN[C@@H]2CCOC2)[C@H](C(=O)Nc2ccnc(C(N)=O)c2)O[C@@]1(C)C(F)(F)F` [Compound 116, 4-((2R,3S,4S,5R)-3-(3,4-difluoro-2-(2-(((R)-tetrahydrofuran-3-yl)amino)ethoxy)phenyl)-4,5-dimethyl-5-(trifluoromethyl)tetrahydrofuran-2-carboxamido)picolinamide], the figure is 10 to 100 nM.

With `C[C@H]1[C@@H](c2ccc(F)c(F)c2OCCN[C@H]2CCOC2)[C@H](C(=O)Nc2ccnc(C(N)=O)c2)O[C@@]1(C)C(F)(F)F` [Compound 117, 4-((2R,3S,4S,5R)-3-(3,4-difluoro-2-(2-(((S)-tetrahydrofuran-3-yl)amino)ethoxy)phenyl)-4,5-dimethyl-5-(trifluoromethyl)tetrahydrofuran-2-carboxamido)picolinamide], the IC50 lay in the range of 10 to 100 nM. As for `C[C@H]1[C@@H](c2ccc(F)c(F)c2OCCNC2COC2)[C@H](C(=O)Nc2ccnc(C(N)=O)c2)O[C@@]1(C)C(F)(F)F` [Compound 118, 4-((2R,3S,4S,5R)-3-(3,4-difluoro-2-(2-(oxetan-3-ylamino)ethoxy)phenyl)-4,5-dimethyl-5-(trifluoromethyl)tetrahydrofuran-2-carboxamido)picolinamide], the IC50 fell in the range of 10 to 100 nM. Then `C[C@H]1[C@@H](c2ccc(F)c(F)c2OCCN2CC(OC(F)F)C2)[C@H](C(=O)Nc2ccnc(C(N)=O)c2)O[C@@]1(C)C(F)(F)F` [Compound 119, 4-((2R,3S,4S,5R)-3-(2-(2-(3-(difluoromethoxy)azetidin-1-yl)ethoxy)-3,4-difluorophenyl)-4,5-dimethyl-5-(trifluoromethyl)tetrahydrofuran-2-carboxamido)picolinamide], with less than 10 nM; and `C[C@H]1[C@@H](c2ccc(F)c(F)c2OCCN2CC(C(F)F)C2)[C@H](C(=O)Nc2ccnc(C(N)=O)c2)O[C@@]1(C)C(F)(F)F` [Compound 120, 4-((2R,3S,4S,5R)-3-(2-(2-(3-(difluoromethyl)azetidin-1-yl)ethoxy)-3,4-difluorophenyl)-4,5-dimethyl-5-(trifluoromethyl)tetrahydrofuran-2-carboxamido)picolinamide], with less than 10 nM. Consider `C[C@H]1[C@@H](c2ccc(F)c(F)c2OCCN2CC(C)(F)C2)[C@H](C(=O)Nc2ccnc(C(N)=O)c2)O[C@@]1(C)C(F)(F)F` [Compound 121, 4-((2R,3S,4S,5R)-3-(3,4-difluoro-2-(2-(3-fluoro-3-methylazetidin-1-yl)ethoxy)phenyl)-4,5-dimethyl-5-(trifluoromethyl)tetrahydrofuran-2-carboxamido)picolinamide], for which the IC50 was less than 10 nM. For `C[C@H]1[C@@H](c2ccc(F)c(F)c2OCCN2CC(C)(O)C2)[C@H](C(=O)Nc2ccnc(C(N)=O)c2)O[C@@]1(C)C(F)(F)F` [Compound 122, 4-((2R,3S,4S,5R)-3-(3,4-difluoro-2-(2-(3-hydroxy-3-methylazetidin-1-yl)ethoxy)phenyl)-4,5-dimethyl-5-(trifluoromethyl)tetrahydrofuran-2-carboxamido)picolinamide], the IC50 fell in the range of 10 to 100 nM. Take `C[C@H]1[C@@H](c2ccc(F)c(F)c2OCCN2CC3(CCOC3)C2)[C@H](C(=O)Nc2ccnc(C(=O)N3CC4(CCOC4)C3)c2)O[C@@]1(C)C(F)(F)F` [Compound 123, (2R,3S,4S,5R)-3-(2-(2-(6-oxa-2-azaspiro[3.4]octan-2-yl)ethoxy)-3,4-difluorophenyl)-N-(2-(6-oxa-2-azaspiro[3.4]octane-2-carbonyl)pyridin-4-yl)-4,5-dimethyl-5-(trifluoromethyl)tetrahydrofuran-2-carboxamide]: the IC50 is no less than 1000 nM. Consider `C[C@H]1[C@@H](c2ccc(F)c(F)c2OCCN2CC3CCC2CO3)[C@H](C(=O)Nc2ccnc(C(N)=O)c2)O[C@@]1(C)C(F)(F)F` (stereo partly drawn) [Compound 124, 4-((2R,3S,4S,5R)-3-(2-(2-(2-oxa-5-azabicyclo[2.2.2]octan-5-yl)ethoxy)-3,4-difluorophenyl)-4,5-dimethyl-5-(trifluoromethyl)tetrahydrofuran-2-carboxamido)picolinamide], for which the IC50 was less than 10 nM. With `C[C@H]1[C@@H](c2ccc(F)c(F)c2OCCN2CCC23COC3)[C@H](C(=O)Nc2ccnc(C(N)=O)c2)O[C@@]1(C)C(F)(F)F` [Compound 125, 4-((2R,3S,4S,5R)-3-(2-(2-(6-oxa-1-azaspiro[3.3]heptan-1-yl)ethoxy)-3,4-difluorophenyl)-4,5-dimethyl-5-(trifluoromethyl)tetrahydrofuran-2-carboxamido)picolinamide], the IC50 is less than 10 nM. As for `C[C@H]1[C@@H](c2ccc(F)c(F)c2OCCN2CC3(CCOC3)C2)[C@H](C(=O)Nc2ccnc(C(N)=O)c2)O[C@@]1(C)C(F)(F)F` [Compound 126, 4-((2R,3S,4S,5R)-3-(2-(2-(6-oxa-2-azaspiro[3.4]octan-2-yl)ethoxy)-3,4-difluorophenyl)-4,5-dimethyl-5-(trifluoromethyl)tetrahydrofuran-2-carboxamido)picolinamide], the figure is 10 to 100 nM; as for `C[C@H]1[C@@H](c2ccc(F)c(F)c2OCCN2CCC3(COC3)C2)[C@H](C(=O)Nc2ccnc(C(N)=O)c2)O[C@@]1(C)C(F)(F)F` [Compound 127, 4-((2R,3S,4S,5R)-3-(2-(2-(2-oxa-6-azaspiro[3.4]octan-6-yl)ethoxy)-3,4-difluorophenyl)-4,5-dimethyl-5-(trifluoromethyl)tetrahydrofuran-2-carboxamido)picolinamide], less than 10 nM.
